Structures can show the parent of a compound that is named as a salt.
Tests used:
[1] = Dynamic water vapor sorption measurements (hygroscopicity); type: physicochemical; details: for H2O content at 50% r.h. / H2O content at 90% r.h.: dynamic water vapor sorption; for H2O content at 90% r.h.: 90% relative humidity; for hygroscopic behaviour (water adsorption, in words): identical measurement conditions, high relative humidities
Source text: Amorphous or mesomorphous forms of a compound can have a very much stronger tendency toward hygroscopicity than crystalline forms. The sitagliptin fumarate compounds described here are characterized in that they have good hygroscopic properties, i.e. absorb little water at high relative humidity. This is evident from table 1 below, which compares the water contents of the crystalline fumarate form A and crystalline hydrochloride at 50% and 90% relative humidity. The data originate from dynamic water vapor adsorption measurements. The water vapor sorption measurement is a suitable method for investigating the hygroscopic properties of solid substances. Water vapor sorption measurements can be carried out in different ways. In general, in this connection, a small sample of ca. 10-30 mg is introduced into a microbalance in a suitable sample carrier. The sample is then exposed to different relative humidities in accordance with a defined program, the change in the sample mass being simultaneously recorded over the time. As a result, insights into the hygroscopic behavior of a substance can be obtained.
Dynamic water vapor adsorption measurements were carried out using an SPS11-100n instrument, manufactured by “Projekt Messtechnik” in Ulm, Germany. For this, ca. 20 mg of the sample were weighed into an aluminum support and this was inserted into the measurement chamber of the instrument. The sample was then subjected to preselected relative humidities in accordance with a defined program, the change in mass being determined over the time. The following measurement program was used: 50% r.h. constant for two hours, then changing the relative humidity to 0% r.h., then changing the relative humidity to 96% r.h., constant at 96% r.h. for four hours and then changing the relative humidity to 50% r.h. and then constant at 50% r.h. for one hour. The change rates set were in each case 5% per hour.

[2] = at temperatures above 40° C.; hydrate of WO 2005/003135; cited from earlier work
[3] = hydrochloride of WO 03/004498 A1; cited from earlier work

Question: For `N[C@@H](CC(=O)N1CCn2c(nnc2C(F)(F)F)C1)Cc1cc(F)c(F)cc1F` [form A, 7-[(3R)-3-amino-1-oxo-4-(2,4,5-trifluorophenyl)butyl]-5,6,7,8-tetrahydro-3-(trifluoromethyl)-1,2,4-triazolo[4,3-a]pyrazine], which “water content at 50% relative humidity” value ([1]; 50% relative humidity) is on record?
Answer: The value was “ca. 0.3%”.

Question: And the “H2O content at 50% r.h.” value ([1]; 50% relative humidity, listed as Crystalline sitagliptin fumarate form A)?
Answer: The value was 0.25%.

Question: What about the “H2O content at 90% r.h.” value ([1]; listed as Crystalline sitagliptin fumarate form A) of the same molecule?
Answer: The value was 1.33%.

Question: And the “additional water absorbed compared with 50% relative humidity” value ([1]; after four hours at 96% relative humidity)?
Answer: Its value is “ca. 1%”.

Question: And the “hygroscopic behaviour (water adsorption, in words)” value [1]?
Answer: The value was “absorbs only a small amount of water”.

Question: With `N[C@@H](CC(=O)N1CCn2c(nnc2C(F)(F)F)C1)Cc1cc(F)c(F)cc1F.O=P(O)(O)O` [sitagliptin dihydrogenphosphate salt] as the molecule, how does the “phase stability (in words)” value [2] read?
Answer: Its value is “phase-unstable”.

Question: For `N[C@@H](CC(=O)N1CCn2c(nnc2C(F)(F)F)C1)Cc1cc(F)c(F)cc1F` [sitagliptin hydrochloride], which “H2O content at 50% r.h.” value ([1]; 50% relative humidity, hydrochloride) is on record?
Answer: The value was greater than 2.7%^.

Question: What about the “H2O content at 90% r.h.” value ([1]; hydrochloride) of the same molecule?
Answer: Its value is greater than 3.6%^.

Question: And the “hygroscopic behaviour (water adsorption, in words)” value ([1]; listed as crystalline sitagliptin hydrochloride monohydrate, hydrochloride)?
Answer: Its value is “adsorbs significantly more water”.

Question: And the “hygroscopicity (in words)” value [3]?
Answer: Its value is “hygroscopic”.

Reference: patent publication US8916559B2, “Crystalline compound of 7-[(3R)-3-amino-1-oxo-4-(2, 4, 5-trifluorophenyl)butyl]-5, 6, 7, 8-tetrahydro-3-(tri fluoromethyl)-1, 2, 4 -triazolo[4,3-A]pyrazin” (Sandoz AG, priority 2009, dated 2014)
